Patent US20100158808A1, “Altered Activity of Toll-Like Receptors” (priority 2003, published 2010)

Assays:
CD86 = CD86 expression in spleen after injection into the spleens of mice; assay type: in vivo; conditions: for Expression of CD86 in the spleen: injection into spleen of mice
Protocol: Surgical Procedures and Immunohistochemistry. Mice were anesthetized and the spleen was directly visualized through an incision in the lateral abdominal wall. Particular substances in […] of PBS were injected into the spleen. Spleens were harvested after 12 hours and sections were frozen in liquid nitrogen. Tissue sections were prepared and stained as described in (Dempsey et al. supra) with the following modifications. Secondary detection antibodies were diluted in M.O.M. diluent (Vector Laboratories, Burlingame, Calif.) and preabsorbed with mouse serum (Jackson ImmunoResearch Laboratories, West Grove, Pa.). Fluorescent images were converted to grayscale using SPOT software (Diagnostic Instruments, Sterling Heights, Mich.).
To determine whether elastase activity on ECM activates TLR4 responses in living tissues, elastase was injected into the spleens of mice. Such treatment typically causes rapid shedding of HS proteoglycans from the tissue, especially from blood vessels (Johnson et al. (2004) J. Immunol. (Cutting Edge) 172:20-24). The spleens were removed and examined for expression of CD86, a protein expressed in response to TLR4 signaling (Kaisho and Akira (2002) Biochim. Biophys. Acta 1589:1-13). […] In contrast, the expression of CD86 observed in leukocytes detached from ECM and stimulated with LPS or HS is considerably heightened (Johnson et al. supra). […] The changes in CD86 expression induced by elastase required TLR4, as the increase in CD86 was not observed when elastase was injected into spleens of mice lacking TLR4 function. Thus, the ECM may limit TLR4 signaling in vivo, and cleavage of ECM can trigger TLR4 signaling in living tissues.

mice = experiment: Experimental shock model (SIRS), D-galactosamine, i.p. injection; assay type: in vivo; conditions: for Death / SIRS in shock model: TLR4-mutant mice; for Death / SIRS in shock model / Death in shock model: i.p. with D-galactosamine; for Death in shock model: TLR4 wild-type mice
Protocol: Experimental shock model. Age- and sex-matched mice were injected with 5 mg of HS, 5 μg of LPS, 5 μg of Limulus anti-LPS factor, 5 mg of chondroitin sulfate, 200 U (−5 mg) heparin, 150 μg of CpG DNA, 1.5 U of elastase, or PBS mixed with 20 mg of D-galactosamine in a total volume of 500 μl of PBS by i.p. injection as previously described (Franks et al. (1991) Infect. Immun. 59:2609). Concentrations of HS and elastase were calculated by weight of lyophilized powder, and the doses used were near the LD50 based on dose-response experiments. In some experiments, the agonist was mixed with 5 or 20 μg of Limulus anti-LPS factor before injection. For some injections, enzymes were boiled at 100° C. for 60 minutes and vortexed vigorously, or preincubated with elastase inhibitor-1 for 4 hours at room temperature and then mixed with D-galactosamine before injection. Mice were monitored every hour for 48 hours and then euthanized.
During sepsis, Gram-negative bacteria shed LPS, which activates TLR4 on cells that then release inflammatory cytokines mediating systemic inflammation and death (Beutler (2000) Curr. Opin. Immunol. 12:20). To determine whether soluble HS can induce a model of systemic inflammatory response syndrome (SIRS) via activation of TLR4 in mice, HS was administered by i.p. injection to TLR4 wild type and mutant mice. This mouse model system has been used to study shock and a sepsis-like syndrome in response to microbial toxins (Galanos et al. (1979) Proc. Natl. Acad. Sci. USA 76:5939). […] Moreover, the observed responses were not due to contamination of HS by LPS, since the HS used was not contaminated with LPS.

Substance	Expression of CD86 in the spleen (CD86)	Death / SIRS in shock model (mice)	Death in shock model (mice)	Increase in CD86 in the spleen (CD86; mice lacking TLR4 function)	Percent death after injection of elastase in SIRS shock model, TLR4 Mutant (%) (mice; TLR4 mutant mice)	Percent death after injection of elastase in SIRS shock model, TLR4 Wild Type (%) (mice; TLR4 wild type mice)
heparan sulfate [HS]	modestly increased	no TLR4-mutant mice injected with HS died	eighty percent	–	–	–
elastase: pancreatic elastase (Calbiochem; type IV porcine pancreatic elastase, Sigma-Aldrich), protease that cleaves ECM proteins	profoundly increased	no TLR4 mutant mice died	Fifty percent	not observed	0%	50%
lipopolysaccharide [LPS]	modestly increased	–	died	–	–	–
